Test results reported in US8697694B2, “Substituted pyridine and pyrimidine derivatives and their use in treating viral infections” (priority 2008, dated 2014).

Each compound was assayed on HCV replicon cells (assay: Cell-based HCV replicon assay (replicon RNA level by real time PCR, Taqman)). Conditions: Hepatitis C virus, 72 h, HCV replicon cells, replicon RNA level by real time PCR (Taqman), harvested on day 3; calculated EC90 reported as range class; read-out: EC90 (μM) range.
Outline: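 HCV replicon cells treated 3 days with 10 serial 2-fold compound dilutions (top 25 μM to 1 μM; 0.5% DMSO, 10% FBS). Replicon RNA quantified by multiplex Taqman RT-PCR (NS5B amplicon, GAPDH control); EC50 and EC90 = concentrations giving ΔCT of 1 and 3.2 over baseline.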

Compound | EC90
COc1cc(CNc2nc(C)c(-c3nc4ccccc4s3)c(N[C@@H]3CC[C@@H](O)[C@H]3O)n2)cc(OC)c1 [Example 1206] | 0.5 to 5 µM
COc1ccccc1CNc1nc(C)c(-c2nc3ccccc3s2)c(N[C@@H]2C[C@H](CO)[C@@H](O)[C@H]2O)n1 [Example 1207] | 0.5 to 5 µM
Cc1cccc(CNc2nc(C)c(-c3nc4ccccc4s3)c(N[C@@H]3C[C@H](CO)[C@@H](O)[C@H]3O)n2)n1 [Example 1208] | 0.5 to 5 µM
COc1cc(OC)cc(C(C)Nc2nc(C)c(-c3nc4ccccc4s3)c(N[C@@H]3C[C@H](CO)[C@@H](O)[C@H]3O)n2)c1 (some centres unmarked) [Example 1209] | 0.5 to 5 µM
COc1cc(COc2nc(C)c(-c3nc4ccccc4s3)c(N[C@@H]3C[C@H](CO)[C@@H](O)[C@H]3O)n2)cc(OC)c1 [Example 1210] | > 5 µM
COc1cc(OC)cc(Oc2nc(C)c(-c3nc4ccccc4s3)c(N[C@@H]3C[C@H](CO)[C@@H](O)[C@H]3O)n2)c1 [Example 1211] | > 5 µM
Cc1nc(NCc2cccc(O)c2)nc(N[C@@H]2C[C@H](CO)[C@@H](O)[C@H]2O)c1-c1nc2ccccc2s1 [Example 1212] | < 0.5 µM
Cc1nc(NCC(C)(C)C)nc(N[C@@H]2CC[C@@H](O)[C@H]2O)c1-c1nc2cnccc2s1 [Example 1213] | > 5 µM
Cc1nc(NCc2cccs2)nc(N[C@@H]2CC[C@@H](O)[C@H]2O)c1-c1nc2cnccc2s1 [Example 1214] | < 0.5 µM
Cc1nc(NCc2ccco2)nc(N[C@@H]2C[C@H](CO)[C@@H](O)[C@H]2O)c1-c1nc2cnccc2s1 [Example 1215] | < 0.5 µM
Cc1nc(Nc2ccccc2)nc(N[C@@H]2C[C@H](CO)[C@@H](O)[C@H]2O)c1-c1nc2cnccc2s1 [Example 1216] | 0.5 to 5 µM
Cc1nc(N(C)c2ccccc2)nc(N[C@@H]2C[C@H](CO)[C@@H](O)[C@H]2O)c1-c1nc2cnccc2s1 [Example 1217] | > 5 µM
COC(=O)c1cccc(CNc2nc(C)c(-c3nc4ccccc4s3)c(N[C@@H]3C[C@H](CO)[C@@H](O)[C@H]3O)n2)c1 [Example 1218] | 0.5 to 5 µM
Cc1nc(NCc2cccc(C(=O)O)c2)nc(N[C@@H]2C[C@H](CO)[C@@H](O)[C@H]2O)c1-c1nc2ccccc2s1 [Example 1219] | > 5 µM
Cc1nc(NCc2ccccc2O)nc(N[C@@H]2C[C@H](CO)[C@@H](O)[C@H]2O)c1-c1nc2ccccc2s1 [Example 1220] | < 0.5 µM
COc1ccc(Nc2nc(C)c(-c3nc4ccccc4s3)c(N[C@@H]3C[C@H](CO)[C@@H](O)[C@H]3O)n2)cc1 [Example 1221] | 0.5 to 5 µM
Cc1nc(Nc2cc[nH]n2)nc(N[C@@H]2C[C@H](CO)[C@@H](O)[C@H]2O)c1-c1nc2ccccc2s1 [Example 1222] | > 5 µM
Cc1nc(NCC(C)(C)C)nc(N2CCC[C@H]2CO)c1-c1nc2ccccc2s1 [Example 1223] | > 5 µM
Cc1nc(NCc2cccs2)nc(N2CCC[C@H]2CO)c1-c1nc2ccccc2s1 [Example 1224] | > 5 µM
Cc1nc(NCc2cccc(S(C)(=O)=O)c2)nc(N[C@@H]2C[C@H](CO)[C@@H](O)[C@H]2O)c1-c1nc2ccccc2s1 [Example 1225] | 0.5 to 5 µM
Cc1nc(Nc2ncco2)nc(N[C@@H]2C[C@H](CO)[C@@H](O)[C@H]2O)c1-c1nc2ccccc2s1 [Example 1226] | > 5 µM

Compound | EC90
Cc1nc(NC(C)(C)c2ccccc2)nc(N[C@@H]2C[C@H](CO)[C@@H](O)[C@H]2O)c1-c1nc2ccccc2s1 [Example 1228] | 0.5 to 5 µM
Cc1nc(NC(C)(C)c2ccccc2)nc(N[C@@H]2C[C@H](CO)[C@@H](O)[C@H]2O)c1-c1nc2cnccc2s1 [Example 1229] | 0.5 to 5 µM
COc1cc(Nc2nc(C)c(-c3nc4ccccc4s3)c(N[C@@H]3C[C@H](CO)[C@@H](O)[C@H]3O)n2)cc(OC)c1 [Example 1230] | > 5 µM
Cc1nc(Nc2cccc(OCc3ccccc3)c2)nc(N[C@@H]2C[C@H](CO)[C@@H](O)[C@H]2O)c1-c1nc2ccccc2s1 [Example 1231] | 0.5 to 5 µM
Cc1nc(NC2(c3ccccc3)CC2)nc(N[C@@H]2C[C@H](CO)[C@@H](O)[C@H]2O)c1-c1nc2ccccc2s1 [Example 1232] | 0.5 to 5 µM
COc1cccc(C)c1Nc1nc(C)c(-c2nc3ccccc3s2)c(N[C@@H]2C[C@H](CO)[C@@H](O)[C@H]2O)n1 [Example 1233] | 0.5 to 5 µM
Cc1ccc([C@@H](C)Nc2nc(C)c(-c3nc4ccccc4s3)c(N[C@@H]3C[C@H](CO)[C@@H](O)[C@H]3O)n2)cc1 [Example 1234] | > 5 µM
COc1ccc(Nc2nc(C)c(-c3nc4ccccc4s3)c(N[C@@H]3C[C@H](CO)[C@@H](O)[C@H]3O)n2)c(OC)c1 [Example 1235] | 0.5 to 5 µM
Cc1nc(Nc2ccccc2OC(F)(F)F)nc(N[C@@H]2C[C@H](CO)[C@@H](O)[C@H]2O)c1-c1nc2ccccc2s1 [Example 1236] | > 5 µM
Cc1nc(Nc2cccc(OC(F)(F)F)c2)nc(N[C@@H]2C[C@H](CO)[C@@H](O)[C@H]2O)c1-c1nc2ccccc2s1 [Example 1237] | > 5 µM
CCOc1nc(C)cc2cc(-c3c(C)nc(NCC4CC4)nc3N[C@@H]3C[C@H](CO)[C@@H](O)[C@H]3O)oc12 [Example 1238] | 0.5 to 5 µM
COc1nc(C)cc2cc(-c3c(C)nc(NCC4CC4)nc3N[C@@H]3C[C@H](CO)[C@@H](O)[C@H]3O)oc12 [Example 1239] | 0.5 to 5 µM
Cc1nc(NCC2CC2)nc(N[C@@H]2C[C@H](CO)[C@@H](O)C2)c1-c1nc2ccccc2s1 [Example 1240] | 0.5 to 5 µM
COc1cc(CNc2nc(C)c(-c3nc4ccccc4s3)c(N[C@@H]3C[C@H](CO)[C@@H](O)C3)n2)cc(OC)c1 [Example 1241] | < 0.5 µM
Cc1nc(NCC(C)(F)F)nc(N[C@@H]2C[C@H](CO)[C@@H](O)[C@H]2O)c1-c1nc2ccccc2s1 [Example 1242] | 0.5 to 5 µM
Cc1nc(NCC(C)(C)F)nc(N[C@@H]2C[C@H](CO)[C@@H](O)[C@H]2O)c1-c1nc2ccccc2s1 [Example 1243] | 0.5 to 5 µM
[2H]C([2H])(Nc1nc(C)c(-c2nc3ccccc3s2)c(N[C@@H]2C[C@H](CO)[C@@H](O)[C@H]2O)n1)c1cc(OC)cc(OC)c1 [Example 1244] | < 0.5 µM
[2H]C([2H])(Nc1nc(C)c(-c2nc3ccccc3s2)c(N[C@@H]2C[C@H](CO)[C@@H](O)[C@H]2O)n1)c1ccccc1 [Example 1245] | < 0.5 µM
CCOc1nc(C)cc2cc(-c3c(C)nc(NCC(F)(F)F)nc3N[C@@H]3C[C@H](CO)[C@@H](O)[C@H]3O)oc12 [Example 1246] | < 0.5 µM
Cc1cc2cc(-c3c(C)nc(NCC(F)(F)F)nc3N[C@@H]3C[C@H](CO)[C@@H](O)[C@H]3O)oc2c(OC(C)C)n1 [Example 1247] | < 0.5 µM
CCOc1nc(C)cc2cc(-c3c(C)nc(NCc4cc(OC)cc(OC)c4)nc3N[C@@H]3C[C@H](CO)[C@@H](O)[C@H]3O)oc12 [Example 1248] | 0.5 to 5 µM

Compound | EC90
CCOc1nc(C)cc2cc(-c3c(C)nc(NC(C)c4ccc(C)cc4)nc3N[C@@H]3C[C@H](CO)[C@@H](O)[C@H]3O)oc12 (some centres unmarked) [Example 1249] | 0.5 to 5 µM
[2H]C([2H])(Nc1nc(C)c(-c2nc3ccccc3s2)c(N[C@@H]2C[C@H](CO)[C@@H](O)[C@H]2O)n1)C(F)(F)F [Example 1250] | 0.5 to 5 µM
Cc1nc(NCC2CC2)nc(N[C@@H]2C[C@H](CO)C[C@H]2O)c1-c1nc2ccccc2s1 [Example 1251] | 0.5 to 5 µM
Cc1nc(NCC2CC2)nc(N[C@@H]2C[C@H](CO)[C@@H](O)[C@@H]2O)c1-c1nc2ccccc2s1 [Example 1252] | > 5 µM
Cc1nc(NCC(F)(F)F)nc(N[C@@H]2C[C@H](CO)[C@@H](O)[C@@H]2O)c1-c1nc2ccccc2s1 [Example 1253] | 0.5 to 5 µM
COCCNc1nc(C#N)c(-c2nc3ccccc3s2)c(N[C@@H]2C[C@H](CO)[C@@H](O)[C@H]2O)n1 [Example 1301] | > 5 µM
COCCNc1nc(N)c(-c2nc3ccccc3s2)c(N[C@@H]2C[C@H](CO)[C@@H](O)[C@H]2O)n1 [Example 1302] | 0.5 to 5 µM
CCc1cc2cc(-c3c(C)nc(O)nc3N[C@@H]3C[C@H](CO)[C@@H](O)[C@H]3O)oc2cn1 [Example 1303] | 0.5 to 5 µM
Cc1nc(N[C@@H](C)c2ccccc2)nc(N[C@@H]2C[C@H](CO)[C@@H](O)[C@H]2O)c1-c1nc2cnccc2s1 [Example 1305] | 0.5 to 5 µM
COc1cc(OC)cc(C(C)Nc2nc(C)c(-c3nc4cnccc4s3)c(N[C@@H]3C[C@H](CO)[C@@H](O)[C@H]3O)n2)c1 (some centres unmarked) [Example 1306] | < 0.5 µM
COc1cc(OC)cc([C@@H](C)Nc2nc(C)c(-c3nc4cnccc4s3)c(N[C@@H]3C[C@H](CO)[C@@H](O)[C@H]3O)n2)c1 [Example 1307] | < 0.5 µM
Cc1nc(N[C@H](C)C(C)(C)C)nc(N[C@@H]2C[C@H](CO)[C@@H](O)[C@H]2O)c1-c1nc2cnccc2s1 [Example 1308] | 0.5 to 5 µM
Cc1nc(NCc2cc(F)cc(F)c2)nc(N[C@@H]2C[C@H](CO)[C@@H](O)[C@H]2O)c1-c1nc2cnccc2s1 [Example 1309] | < 0.5 µM
Cc1nc(N[C@@H](C)C(C)(C)C)nc(N[C@@H]2C[C@H](CO)[C@@H](O)[C@H]2O)c1-c1nc2cnccc2s1 [Example 1310] | 0.5 to 5 µM
Cc1nc(N[C@H](C)c2ccc(F)cc2)nc(N[C@@H]2C[C@H](CO)[C@@H](O)[C@H]2O)c1-c1nc2cnccc2s1 [Example 1311] | < 0.5 µM
Cc1nc(N[C@@H]2CCc3ccccc32)nc(N[C@@H]2C[C@H](CO)[C@@H](O)[C@H]2O)c1-c1nc2cnccc2s1 [Example 1312] | 0.5 to 5 µM
Cc1nc(N(C)Cc2ccccc2)nc(N[C@@H]2C[C@H](CO)[C@@H](O)[C@H]2O)c1-c1nc2cnccc2s1 [Example 1313] | 0.5 to 5 µM
Cc1ccc([C@H](C)Nc2nc(C)c(-c3nc4cnccc4s3)c(N[C@@H]3C[C@H](CO)[C@@H](O)[C@H]3O)n2)cc1 [Example 1314] | 0.5 to 5 µM
Cc1ccc(C2(Nc3nc(C)c(-c4nc5cnccc5s4)c(N[C@@H]4C[C@H](CO)[C@@H](O)[C@H]4O)n3)CC2)cc1 [Example 1315] | 0.5 to 5 µM
CC[C@@H](C)Nc1nc(C)c(-c2nc3cnccc3s2)c(N[C@@H]2C[C@H](CO)[C@@H](O)[C@H]2O)n1 [Example 1316] | < 0.5 µM
